Source: BindingDB's records for doi:10.1016/j.bioorg.2017.04.006 (China Pharmaceutical University, 2017)

Tests used:
[1] = target: Lysine-specific histone demethylase 1A (Homo sapiens, UniProt O60341); test: LSD1 Screening Assay; details: pH 7.5; 25 °C
Description: The LSD1 screening biochemical assay was performed by Shanghai ChemPartner Co. Ltd and the detailed protocol was shown as followed. The AlphaLISA assay of LSD1 (BPS Bioscience) was performed in modified Tris buffer (pH 7.5). Briefly, the compoundsin DMSO were transferred to assay plate by Echo 550, followed by pre-incubating with enzyme (final concentration is 5 nM) for 15 min at room temperature. The initiation of reactions were added H3K4me2 peptide solution (final concentration is 100 nM) to the reaction mixtures and then incubated for 60 min at roomtemperature. The reactions were terminated by the addition of the acceptor and donor beads mix (PerkinElmer) and incubated for 60 min at room temperature, and finally read on EnSpire (PerkinElmer) in Alpha Mode.

[2] = target: T1, Amine oxidase [flavin-containing] B (Homo sapiens, UniProt P27338); test: MAO-A and MAO-B Assay
T1 sequence (P27338 whole entry): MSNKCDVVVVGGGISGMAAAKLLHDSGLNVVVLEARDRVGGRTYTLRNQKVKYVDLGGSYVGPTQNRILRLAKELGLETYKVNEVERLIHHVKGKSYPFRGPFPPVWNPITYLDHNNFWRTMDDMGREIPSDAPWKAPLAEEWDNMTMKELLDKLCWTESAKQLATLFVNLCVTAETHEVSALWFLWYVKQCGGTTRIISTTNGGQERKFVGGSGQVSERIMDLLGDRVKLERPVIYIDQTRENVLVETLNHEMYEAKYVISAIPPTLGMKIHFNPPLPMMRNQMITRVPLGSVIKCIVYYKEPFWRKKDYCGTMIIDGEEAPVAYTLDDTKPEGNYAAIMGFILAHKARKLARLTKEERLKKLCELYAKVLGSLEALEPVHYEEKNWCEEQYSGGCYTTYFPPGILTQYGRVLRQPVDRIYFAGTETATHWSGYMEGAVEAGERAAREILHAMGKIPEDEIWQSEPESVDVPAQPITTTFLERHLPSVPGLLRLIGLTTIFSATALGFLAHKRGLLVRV
Source text: (§1) The MAO-A and MAO-B is purchased from Active Motif (Cat#31502, Cat#31503). Biochemical Kit is purchased from Promega (MAO-Glo Assay, V1402). The inhibition of selectivity assay was preformed in light of the manufacturer's protocol.

[3] = target: T2, Amine oxidase [flavin-containing] A (Homo sapiens, UniProt P21397); test: MAO-A and MAO-B Assay
T2 sequence (P21397 whole entry): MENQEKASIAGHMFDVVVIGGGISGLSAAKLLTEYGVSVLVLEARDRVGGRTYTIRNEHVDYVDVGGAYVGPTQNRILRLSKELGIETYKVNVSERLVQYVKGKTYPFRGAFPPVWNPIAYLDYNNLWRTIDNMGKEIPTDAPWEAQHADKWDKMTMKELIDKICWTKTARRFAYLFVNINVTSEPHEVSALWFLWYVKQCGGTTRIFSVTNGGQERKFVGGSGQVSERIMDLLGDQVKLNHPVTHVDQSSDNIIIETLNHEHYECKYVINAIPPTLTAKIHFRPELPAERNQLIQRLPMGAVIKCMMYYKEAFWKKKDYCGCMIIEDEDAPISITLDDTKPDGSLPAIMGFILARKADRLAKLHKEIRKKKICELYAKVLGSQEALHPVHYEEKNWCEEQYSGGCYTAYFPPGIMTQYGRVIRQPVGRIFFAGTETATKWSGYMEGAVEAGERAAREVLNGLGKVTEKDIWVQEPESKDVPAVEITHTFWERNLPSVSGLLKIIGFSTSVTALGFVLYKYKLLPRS
Source text: as §1

IC50 [1] [µM]	IC50 [2] [µM]	IC50 [3] [µM]	Structure (SMILES)
11	–	–	CN(CC(=O)Nc1cccc(S(=O)(=O)N2CCCCC2)c1)c1cc(Cl)ccc1O [2-((5-Chloro-2-hydroxyphenyl)(methyl)amino)-N-(3-(piperidin-1-ylsulfonyl)phenyl)acetamide (7g)]
9.5	65.7	187	CN(CC(=O)Nc1cccc(S(=O)(=O)N2CCOCC2)c1)c1cc(Cl)ccc1O [2-((5-Chloro-2-hydroxyphenyl)(methyl)amino)-N-(3-(morpholinosulfonyl)phe-nyl)acetamide (7b)]
13	–	–	CC(Nc1cc(Cl)ccc1O)C(=O)Nc1cccc(S(=O)(=O)N2CCOCC2)c1 (stereo not drawn) [2-((5-Chloro-2-hydroxyphenyl)amino)-N-(3-(morpholinosulfonyl)phenyl)propanamide (7c)]
13	–	–	O=C(CNc1cc(Cl)ccc1O)Nc1cccc(S(=O)(=O)N2CCOCC2)c1 [2-((5-Chloro-2-hydroxyphenyl)amino)-N-(3-(morpholinosulfonyl)phenyl)acetamide (7a)]
14	–	–	CN(C)S(=O)(=O)c1cccc(NC(=O)CNc2cc(Cl)ccc2O)c1 [2-((5-Chloro-2-hydroxyphenyl)amino)-N-(3-(N,N-dimethylsulfamoyl)phenyl)-acetamide (7d)]
12	–	–	CC(Nc1cc(Cl)ccc1O)C(=O)Nc1cccc(S(=O)(=O)N(C)C)c1 (stereo not drawn)
13	–	–	CN(CC(=O)Nc1cccc(S(=O)(=O)N(C)C)c1)c1cc(Cl)ccc1O [2-((5-Chloro-2-hydroxyphenyl)(methyl)amino)-N-(3-(N,N-dimethylsulfamoyl)phenyl)acetamide (7e)]
6.9	102	114	CC(Nc1cc(Cl)ccc1O)C(=O)Nc1cccc(S(=O)(=O)N2CCCCC2)c1 (stereo not drawn) [2-((5-Chloro-2-hydroxyphenyl)amino)-N-(3-(piperidin-1-ylsulfonyl)phenyl)propanamide (7h)]

Structure (SMILES)	IC50 [1] [µM]	IC50 [2] [µM]	IC50 [3] [µM]
C/C(=N\NC(=O)c1cccc(S(=O)(=O)N2CCOCC2)c1)c1cc(Cl)ccc1O [US8987335, 12]	0.011	–	–
